From patent US20150366839A1, “Schisantherin A for the treatment of neurodegenerative diseases” (priority 2014, published 2015)

How the values were obtained:
caspase-3 = test: Caspase-3 activity assay (EnzChek kit); format: cell-based, Human; settings: 60 μM 12 h, then 2 mM MPP+ 36 h
Experimental: Caspase-3 activity was detected using the EnzChek® Caspase-3 Assay Kit according to the manufacturer's protocol. In brief, the reaction mixture (total volume 100 μL) contained 50 μL of cell lysate and 50 μL of caspase-3 substrate (Z-DEVD-R110 substrate; the final concentration is […]) in assay buffer, and the assay was carried out in a 96-well plate. To account for non-specific hydrolysis of substrate, the samples were incubated at room temperature for approximately 30 minutes and measured the fluorescence (excitation/emission˜496/520 nm).
The inventors performed Western blot to measure the expression of active-form of caspase-3 and caspase-7 in SH-SY5Y cells. Cells were pretreated with 60 μM SchiA for 12 h and then treated with 2 mM MPP for another 36 h. Cells were lysed and examined by western blot. […] Caspase-3 activity was expressed as units per mg protein. ###p<0.005 versus control group; *p<0.05, **p<0.01 and *** p<0.005 versus MPP+ group.

ERK1/2 = test: ERK phosphorylation after 6-OHDA, Western blot; format: cell-based, Human
Experimental: (§1) After treatment, SH-SY5Y cells were washed three times with PBS and then lysis with RIPA lysis buffer containing 1% PMSF and 1% Protease Inhibitor Cocktail and incubated for 30 min on ice. Cell lysates were centrifuged at 12,500 g for 20 min at 4° C. The supernatant was separated and the amount of protein was determined using the BCA protein assay kit (Thermo Scientific Pierce, USA). Protein samples (30 μg) were separated by SDS-PAGE (10% (w/v)) polyacrylamide gel and then transferred to a polyvinylidene difluoride (PVDF) membrane (Bio-Rad, Hercules, Calif.). Subsequently, the membrane was blocked with 5% (v/v) non-fat milk in PBST (PBS containing 0.1% Tween 20) for 1 h at room temperature. The blots were incubated overnight at 4° C. with primary antibodies. After three washes with PBST, the membranes were incubated with horseradish peroxidase-conjugated secondary antibodies (1:2000) in PBST with 5% non-fat milk for 1 h at room temperature. After repeated washes, proteins were visualized with an ECL advanced western blotting detection kit. Photographs of protein bands were taken by a Molecular Imager ChemiDoc XRS (Bio-Rad, Hercules, Calif.). Quantitative assessment of protein bands was done with Gel Doc™ XRS equipped with Quantity One software. […]

GSK3β = GSK3β phosphorylation (Ser9) after 6-OHDA, Western blot; format: cell-based, Human; settings: pretreated 12 h, then 400 μM 6-OHDA 4 h
Experimental: as §1

SH-SY5Y cells = test: MTT cytotoxicity of the five lignans; format: cell-based
Experimental: Human neuroblastoma SH-SY5Y cells were purchased from the American Type Culture Collection (ATCC, Manassas, Va., USA) and cultured in a humidified 5% (v/v) CO2 atmosphere in 37° C. in Dulbecco's Modified Eagle Medium (DMEM) (Life technologies, NY, USA) supplemented with 10% FBS, 1% penicillin (100 U/mL) and streptomycin (100 μg/mL). All experiments were carried out 48 h after the cells were seeded.
Cell viability was determined by 3-(4,5-dimethyl-2-thiazolyl) 2,5-diphenyl-2H-tetrazolium bromide (MTT) assay (Sigma-Aldrich, USA). SH-SY5Y cells were seeded in 96-well plates (1×10^4 cells/well) for 48 h. SH-SY5Y cells were pre-treated with different concentrations of the five lignans (i.e. Schizandrin A, Schizandrin B, SC, Schizandrol A and SchiA) for 12 h and the cell viability was checked by MTT assay. Otherwise, SH-SY5Y cells were pre-treated with different concentrations of the five lignans for 12 h and then exposed to 400 μM 6-OHDA for 4 h. Cells were incubated at 37° C. for 4 h in 0.5 mg/mL MTT solution (prepared in serum free DMEM medium). The medium was then removed, and 100 μL of DMSO was added to each well to dissolve the violet-formazan crystals. The absorbance at 570 nm with 655 nm as a reference wavelength was measured by a multi-label counter (Wallac VICTOR3TMV, Perkin Elmer, Netherlands). Cell viability was expressed as a percentage of the value of the cells without 6-OHDA treatment. The LC50 and EC50 were calculated by GraphPad Prism V5.0 (GraphPad Software, Inc., San Diego, Calif.).
To evaluate the cytotoxicity of five selected lignans of S. chinensis, SH-SY5Y cells were treated with various concentrations of the tested compounds for 12 h and the cell viability was measured using the MTT assay.
To evaluate the cytotoxicity of five selected lignans of S. chinensis, SH-SY5Y cells were treated with various concentrations of the tested compounds for 12 h and the cell viability was measured using the MTT assay. […] To further study the neuroprotective activities of the five lignans in vitro, cells were treated with various concentrations of the tested compounds for 12 h before exposed to MPP^+. […] Values represent mean±S.D. ###P<0.005 versus control group; *p<0.05, **p<0.01 and *** p<0.005 versus MPP group. […] The therapeutic index of SchiA and SC were 14.9 and 8.8, respectively.

SMILES: COc1cc2c(c(OC)c1OC)-c1c(cc3c(c1OC)OCO3)C[C@H](C)[C@](C)(O)[C@H]2OC(=O)c1ccccc1 [SchiA, Schisantherin A]
- MPP+-induced elevation of caspase-3 activity (caspase-3): dramatically suppressed
- 6-OHDA-induced reduction in ERK1/2 phosphorylation (ERK1/2; 60 μM 12 h, then 400 μM 6-OHDA 4 h): prevented the reduction in ERK1/2 phosphorylation
- phosphorylated ERK1/2 level, compound alone (ERK1/2; 60 μM, without 6-OHDA): did not change
- 6-OHDA-induced repression of GSK3β phosphorylation at serine 9 (GSK3β): completely blocked
- CC50 (SH-SY5Y cells): 121 µM
